Results: patent US9963453B2, “Substituted pyrazino[1,2-a]indoles as sigma receptor activity modulators” (LABORATORIOS DEL DR. ESTEVE S.A., priority 2013, dated 2018)

Target: human sigma 1 receptor (Homo sapiens (Human), UniProt Q99720)
Assay: Human Sigma 1 Receptor Radioligand Assay
Assay type: binding
Details: transfected HEK-293 membranes, 5 nM [3H](+)-pentazocine as radioligand, 37° C., 120 minutes
Protocol: Human Sigma 1 Receptor Radioligand Assay
To investigate binding properties of sigma 1 receptor ligands to human sigma 1 receptor, transfected HEK-293 membranes and [^3H](+)-pentazocine (Perkin Elmer, NET-1056), as the radioligand, were used. The assay was carried out with 7 μg of membrane suspension, 5 nM of [^3H](+)-pentazocine in either absence or presence of either buffer or 10 μM Haloperidol for total and non-specific binding, respectively. Binding buffer contained Tris-HCl 50 mM at pH 8. Plates were incubated at 37° C. for 120 minutes. After the incubation period, the reaction mix was then transferred to MultiScreen HTS, FC plates (Millipore), filtered and plates were washed 3 times with ice-cold 10 mM TrisHCL (pH7.4). Filters were dried and counted at approximately 40% efficiency in a MicroBeta scintillation counter (Perkin-Elmer) using EcoScint liquid scintillation cocktail.

Chain of human sigma 1 receptor (Q99720 whole entry): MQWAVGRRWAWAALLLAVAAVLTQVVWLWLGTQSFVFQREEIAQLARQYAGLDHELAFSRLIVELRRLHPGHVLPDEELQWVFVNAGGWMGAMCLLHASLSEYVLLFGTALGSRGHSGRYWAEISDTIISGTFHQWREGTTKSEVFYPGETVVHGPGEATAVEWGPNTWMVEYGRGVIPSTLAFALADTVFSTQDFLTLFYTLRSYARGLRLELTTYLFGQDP

| SMILES | Ki |
| --- | --- |
| C[C@@H](CC(=O)N1CCn2c(cc3ccccc32)C1)N1CCN(C)CC1 [Example 49, (S)-1-(3,4-dihydropyrazino[1,2-a]indol-2(1H)-yl)-3-(4-methylpiperazin-1-yl)butan-1-one] | 91.7 nM |
| C[C@H](CC(=O)N1CCn2c(cc3ccccc32)C1)N1CCN(C)CC1 [Example 50, (R)-1-(3,4-dihydropyrazino[1,2-a]indol-2(1H)-yl)-3-(4-methylpiperazin-1-yl)butan-1-one] | 251 nM |
| C[C@H](C(=O)N1CCN2c3ccccc3C[C@H]2C1)N1CCN(C2CCCCC2)CC1 [Example 51, (R)-2-(4-cyclohexylpiperazin-1-yl)-1-((S)-3,4,10,10a-tetrahydropyrazino[1,2-a]indol-2(1H)-yl)propan-1-one] | 59.9 nM |
| C[C@@H](C(=O)N1CCN2c3ccccc3C[C@@H]2C1)N1CCN(C2CCCCC2)CC1 [Example 52, (S)-2-(4-cyclohexylpiperazin-1-yl)-1-((R)-3,4,10,10a-tetrahydropyrazino[1,2-a]indol-2(1H)-yl)propan-1-one] | 142 nM |
| C[C@@H](C(=O)N1CCN2c3ccccc3C[C@H]2C1)N1CCN(C2CCCCC2)CC1 [Example 53, (S)-2-(4-cyclohexylpiperazin-1-yl)-1-((S)-3,4,10,10a-tetrahydropyrazino[1,2-a]indol-2(1H)-yl)propan-1-one] | 94.7 nM |
| C[C@H](C(=O)N1CCN2c3ccccc3C[C@@H]2C1)N1CCN(C2CCCCC2)CC1 [Example 54, (R)-2-(4-cyclohexylpiperazin-1-yl)-1-((R)-3,4,10,10a-tetrahydropyrazino[1,2-a]indol-2(1H)-yl)propan-1-one] | 71.6 nM |
